Assay [1] concerns Haloperidol-induced catalepsy. The assay can be described thus: Inhibition of Haloperidol-induced catalepsy on rats. It is filed as in vivo, rat (male Wistar). The conditions noted are these: Haloperidol 40 mg/kg s.c., test compound i.v. 120 min later, probit analysis, at the time given. On the procedure: (1) Inhibition of Haloperidol-induced catalepsy on rats (see J. Delay and P. Deniker: Compt. Rend. Congr. Med. Alenistes Neurologistes, 19, 497, Luxembourg, 1952)
The tests were performed on male Wistar rats weighing 160 to 180 g.
40 mg/kg of 4-(p-chlorophenyl)-1-(3-/p-fluorobenzoyl/-propyl)-piperidin-4-ol (Haloperi dol) were administered subcutaneously into the animals, and 120 minutes after this treatment the animals were checked for the appearance of catalepsy. The rats were divided into groups of 10 animals each, and treated intravenously with TRH or the new TRH analogues. The animals belonging to the control group received physiological saline. The catalepsy-suspending effects of the individual compounds were determined 15, 30, 60, 90 and 120 minutes after the treatment. The animals that had not changed their position for 30 seconds after placing their fore-paw onto a 7 cm high column were regarded as cataleptic.

The subject of assay [2] is ethanol-induced sleeping. Briefly: Ethanol narcosis. It is filed as in vivo, CFLP (LATI) mice. The conditions noted are these: mice, ethanol 4.5 g i.p., compound 20 mg/kg i.p. 10 min later; control sleeping 46.9 ± 2.17 min. On the procedure:
(5) Ethanol narcosis (see J. M. Cott et al.: J. Pharm. Exp. Ther. 196, 594/1976/) The tests were performed on groups of 20 CFLP (LATI) mice of both sexes, each weighing 18 to 22 g. 4.5 g of ethanol were introduced intraperitoneally into the animals, and 10 minutes later the animals were treated intraperitoneally with 20 mg/kg of the tripeptide under examination. The sleeping periods of the animals were recorded, averages were calculated for the individual groups, and the results were expressed as percents related to the control group.

Assay [3] relates to L-Dopa-induced locomotive activity. The assay can be described thus: Potentiation of locomotive activity induced on mice by L-Dopa. It is filed as in vivo. The conditions noted are these: compound 20 mg/kg i.p., percent related to TRH; for Potentiation of the locomotive effect of L-Dopa, % after 30': Pargyline 40 mg/kg i.p., L-Dopa 100 mg/kg i.p., 30 min; for Potentiation of the locomotive effect of L-Dopa, % after 60': 60 min; for Potentiation of the locomotive effect of L-Dopa, % after 90': 90 min. As for the experimental part: (2) Potentiation of locomotive activity induced on mice by L-Dopa (see The Thyroid Axis, Drugs and Behavior, p. 116, A. J. Prage Jr., Raven Press, New York, 1974)
The tests were performed on groups of 15 male mice each, weighing 18 to 22 g.
First, the animals were treated intraperitoneally with 40 mg/kg of N-methyl-N-propargyl-benzylamine (Pargyline), and then an intraperitoneal dosage of 20 mg/kg of TRH or a TRH-analogue was introduced, followed by an intraperitoneal dosage of 100 mg/kg of L-Dopa. The locomotive activity of the animals was recorded 30, 60 and 90 minutes after this treatment, and the level of potentiation was expressed in percents related to the results observed with TRH.

Assay [4] deals with hexobarbital-induced sleeping. Briefly: Influencing the duration of sleeping caused by hexobarbital. The conditions noted are these: mice, hexobarbital sodium 60 mg/kg i.v., compound 20 mg/kg i.p. 10 min later; control sleeping 38.4 ± 1.36 min. It is filed as in vivo. On the procedure:
(4) Influencing the duration of sleeping caused by hexobarbital The tests were performed on groups of 10 male mice each. The animals were treated intravenously with 60 mg/kg of hexobarbital sodium ([…]®; Bayer), and 10 minutes later 20 mg/kg of TRH or a tripeptide under examination were administered intraperitoneally into the animals. The sleeping times of the animals were recorded, averages were calculated for the individual groups, and the results were expressed as percents related to the control group.

Assay [5] concerns Reserpine hypothermy. The assay can be described thus: Reserpine hypothermy-reversing effect on mice. Type of assay: in vivo. The conditions noted are these: average of 10 animals; for Reserpine hypothermy reversing effect, rectal temperature obs. time 1 h: 1 hour after 20 mg/kg of the tripeptide; for Reserpine hypothermy reversing effect, rectal temperature obs. time 2 h: 2 hours after 20 mg/kg of the tripeptide; for Reserpine hypothermy reversing effect, rectal temperature res.: 16 hours after reserpine 5 mg/kg i.p., before the tripeptide; for Reserpine hypothermy reversing effect, rectal temperature norm.: baseline prior to administration of reserpine. As for the experimental part: (3) Reserpine hypothermy-reversing effect on mice (see B. M. Askew: Life Sci. 2, 725-730/1963/)
The tests were performed on groups of 10 male mice each, weighing 18 to 22 g. Reserpine was administered into the animals in an intraperitoneal dosage of 5 mg/kg, and 16 hours later the animals were treated with 20 mg/kg of TRH or a tripeptide under examination.
The rectal temperature of the animals was measured prior to the administration of reserpine (marked by "norm." in Table 1), 16 hours after the administration of reserpine (marked by "res." in Table 1), furthermore 1 and 2 hours after the administration of the tripeptide (marked by "obs.time" in Table 1). The data listed in Table 1 are the averages of the temperatures observed on the 10 animals.

In assay [6] the test system is TSH. The assay can be described thus: Hormonal activity (TSH effect) on rats. Type of assay: in vivo, rat (male Wistar). The conditions noted are these: 20 mg/kg i.v., plasma TSH by radioimmune assay 15 min after treatment, relative activity, TRH = 100%. On the procedure:
(6) Hormonal activity (TSH effect) on rats
The tests were performed on groups of 7 or 8 male Wistar rats each, weighing 200 g. The animals were treated intravenously with 20 mg/kg of TRH or a tripeptide under examination. The TSH reaction of the animals was evaluated 15 minutes after this treatment, by subjecting the blood plasma to radioimmune assay. The relative activities were calculated by the four-point method using a TPA 101 computer, and the activity of TRH was regarded as 100%.

From patent US4386073A, “Tripeptides acting on the central nervous system and a process for the preparation thereof” (Patentbureau DANUBIA, priority 1979, dated 1983) come the findings set out here.

Where a SMILES comes first, the peptide text is derived from it. [ ]: non-standard residue; d: D form. d(pGlu) = O=C1CC[C@H](C(=O)O)N1

`CC(C)C[C@H](NC(=O)C1CCCC(=O)N1)C(=O)N1CCC[C@H]1C(N)=O` (stereo partly drawn) [Kpc Leu Pro, L-6-ketopiperidine-2-carbonyl-L-leucyl-L-prolinamide]: the “Inhibition of Haloperidol catalepsy ED50” value in assay [1] amounted to 23.5 mg/kg. Also, the “Decrease of sleeping period (% related to the control animals), Ethanol” value in assay [2] amounted to 79%. Besides, in assay [3], the “Potentiation of the locomotive effect of L-Dopa, % after 30'” value (“Potentiation … % after 30'” for short) was determined as 319%; the “Potentiation of the locomotive effect of L-Dopa, % after 60'” value (“Potentiation … % after 60'” for short) stood at 80%; the “Potentiation of the locomotive effect of L-Dopa, % after 90'” value (from here on “Potentiation … % after 90'”) is given as 127%. The “Decrease of sleeping period (% related to the control animals), Hexobarb.” value in assay [4] is 37%. In assay [5], the “Reserpine hypothermy reversing effect, rectal temperature obs. time 1 h” value turned out to be 32.0 °C; the “Reserpine hypothermy reversing effect, rectal temperature obs. time 2 h” value was 33.9 °C; the “Reserpine hypothermy reversing effect, rectal temperature res.” value was determined as 24.5 °C; the “Reserpine hypothermy reversing effect, rectal temperature norm.” value was determined as 36.3 °C. Besides, the TSH effect in assay [6] was determined as 2.7%.

`CCC[C@H](NC(=O)C1CCCC(=O)N1)C(=O)N1CCCC[C@H]1C(N)=O` (stereo partly drawn) [Kpc Nva HPro, L-6-Ketopiperidine-2-carbonyl-L-norvalyl-L-homoprolinamide]: the “Inhibition of Haloperidol catalepsy ED50” value in assay [1] was 35.3 mg/kg. In assay [2], the “Decrease of sleeping period (% related to the control animals), Ethanol” value was determined as 35%. Further, in assay [3], the “Potentiation … % after 30'” value came out at 63%; the “Potentiation … % after 60'” value is 30%; the “Potentiation … % after 90'” value amounted to 108%. For the same compound, the “Decrease of sleeping period (% related to the control animals), Hexobarb.” value in assay [4] was 76%. In assay [5], the “Reserpine hypothermy reversing effect, rectal temperature obs. time 1 h” value was 26.5 °C; the “Reserpine hypothermy reversing effect, rectal temperature obs. time 2 h” value worked out at 32.2 °C; the “Reserpine hypothermy reversing effect, rectal temperature res.” value was 20.7 °C; the “Reserpine hypothermy reversing effect, rectal temperature norm.” value is 36.3 °C.

As to `CC(C)C[C@H](NC(=O)C1CNC(=O)N1)C(=O)N1CCC[C@H]1C(N)=O` (stereo partly drawn) [Kic Leu Pro, L-2-Ketoimidazolidine-4-carbonyl-L-leucyl-L-prolinamide], the “Inhibition of Haloperidol catalepsy ED50” value in assay [1] is given as 80 mg/kg. The “Decrease of sleeping period (% related to the control animals), Ethanol” value in assay [2] was 69%. Further, in assay [3], the “Potentiation … % after 30'” value amounted to 118%; the “Potentiation … % after 60'” value is 70%; the “Potentiation … % after 90'” value was determined as 98%. In assay [4], the “Decrease of sleeping period (% related to the control animals), Hexobarb.” value was 59%. Moreover, in assay [5], the “Reserpine hypothermy reversing effect, rectal temperature obs. time 1 h” value was 27.7 °C; the “Reserpine hypothermy reversing effect, rectal temperature obs. time 2 h” value came to 28.8 °C; the “Reserpine hypothermy reversing effect, rectal temperature res.” value turned out to be 24.1 °C; the “Reserpine hypothermy reversing effect, rectal temperature norm.” value worked out at 35.5 °C. In addition, the TSH effect in assay [6] was found to be 0%.

For the compound `CCC[C@H](NC(=O)C1CCCC(=O)N1)C(=O)N1CCC[C@H]1C(N)=O` (stereo partly drawn) [Kpc Nva Pro, L-6-Ketopiperidine-2-carbonyl-L-norvalyl-L-prolinamide], the “Inhibition of Haloperidol catalepsy ED50” value in assay [1] was 10.6 mg/kg. Besides, the “Decrease of sleeping period (% related to the control animals), Ethanol” value in assay [2] stood at 46%. Also, in assay [3], the “Potentiation … % after 30'” value is reported as 36%; the “Potentiation … % after 60'” value was determined as 45%; the “Potentiation … % after 90'” value came to 65%. For the same compound, in assay [4], the “Decrease of sleeping period (% related to the control animals), Hexobarb.” value turned out to be 51%. In assay [5], the “Reserpine hypothermy reversing effect, rectal temperature obs. time 1 h” value worked out at 33.1 °C; the “Reserpine hypothermy reversing effect, rectal temperature obs. time 2 h” value came out at 32.5 °C; the “Reserpine hypothermy reversing effect, rectal temperature res.” value came to 23.9 °C; the “Reserpine hypothermy reversing effect, rectal temperature norm.” value came out at 36.3 °C. This compound also gave a TSH effect in assay [6] of 0%.

Consider `NC(=O)[C@@H]1CCCN1C(=O)[C@H](Cc1c[nH]cn1)NC(=O)[C@@H]1CCC(=O)N1` [TRH, L-pyroglutamyl-L-histidyl-L-prolinamide, reference compound], for which the “Inhibition of Haloperidol catalepsy ED50” value in assay [1] is 80 mg/kg. Moreover, in assay [2], the “Decrease of sleeping period (% related to the control animals), Ethanol” value worked out at 35%. For the same compound, in assay [3], the “Potentiation … % after 60'” value turned out to be 100% and the “Potentiation … % after 90'” value was found to be 100%. In addition, the “Decrease of sleeping period (% related to the control animals), Hexobarb.” value in assay [4] is on record as 56%. Moreover, in assay [5], the “Reserpine hypothermy reversing effect, rectal temperature obs. time 1 h” value came out at 35.5 °C.

Take `CC(C)C[C@H](NC(=O)[C@H]1CCC(=O)N1)C(=O)N1CCC[C@H]1C(N)=O` [D-Glp Leu Pro, D-Pyroglutamyl-L-leucyl-L-prolinamide] ([d(pGlu)]-Leu-Pro-NH2): in assay [1], the “Inhibition of Haloperidol catalepsy ED50” value was 70 mg/kg. For the same compound, the “Decrease of sleeping period (% related to the control animals), Ethanol” value in assay [2] is on record as 54%. Moreover, in assay [3], the “Potentiation … % after 30'” value is on record as 54%; the “Potentiation … % after 60'” value amounted to 58%; the “Potentiation … % after 90'” value was determined as 115%. The “Decrease of sleeping period (% related to the control animals), Hexobarb.” value in assay [4] is 97%. Further, in assay [5], the “Reserpine hypothermy reversing effect, rectal temperature obs. time 1 h” value was determined as 25.8 °C; the “Reserpine hypothermy reversing effect, rectal temperature obs. time 2 h” value came out at 25.6 °C; the “Reserpine hypothermy reversing effect, rectal temperature res.” value turned out to be 27.4 °C; the “Reserpine hypothermy reversing effect, rectal temperature norm.” value is 36.5 °C. Further, in assay [6], the TSH effect was 0%.
